We go through 1 compound from US20070088508A1, “Cocrystallization methods” (priority 2005, published 2007).

A short description of series [1]: Solubility in aqueous systems. It counts as physicochemical. An excerpt: Five cocrystals of 2-4-(4-chloro-2-fluorophenoxy)phenyl]pyrimidine-4-carboxamide (Compound 1) were identified by using techniques of the disclosure. […] Although the permeability of Compound 1 could not be measured in Caco-2 cells because of its inherently low solubility, Compound 1 is suspected to be a Class II compound (low solubility and high permeability) as described in the biopharmaceutical drug classification scheme (BCS) (Amidon, Gordon L., Lennernaes, Hans, Shah, Vinod P. and Crison, John R. (1995) “A theoretical basis for a biopharmaceutic drug classification: the correlation of in vitro drug product dissolution and in vivo bioavailability” Pharmaceutical Research […], 12(3), 4 13-20). The calculated octanol/water partition coefficient (clogP) for Compound 1 is 2.9, supporting this suspicion (Yazdanian, Mehran, Glynn, Susan L., Wright, James L., and Hawi, Amale. (1998) “Correlating partitioning and Caco-2 cell permeability of structurally diverse small molecular weight compounds” Pharmaceutical Research 1998 15(9), 1490-1494). […] Cocrystallization techniques were used as a tool to improve the pharmaceutical properties of Compound 1.

Series [2] can be described thus: Intrinsic dissolution studies. The settings on record: crystalline solid. The series is classed as physicochemical. As for the experimental part:
Intrinsic dissolution measurements were performed using a fiber optic probe (Delphian® type 11A fiber optic workstation, baseline correction mode with sample wavelength maximum of 279 nm and baseline wavelength of 350 nm) at 37° C. and 100 rpm in a USP apparatus II dissolution vessel (Vankel VK7010) containing 500 mL of pure water. Disks 0.8 cm diameter were compressed using 70 mg of solid in stainless steel dies (Vankel Woods apparatus) at 1000 lbs for 60 seconds with a Carver Press. Dissolution studies for cocrystal 2 lasted 90 minutes, after which time the disks were recovered, carefully ground and checked by XRPD for the presence of cocrystal. Due to the low solubility of Compound 1, dissolution studies were run over 24 hours in order to get a measurable rate.

Series [3] can be described thus: Pharmacokinetic evaluation in beagle dogs after oral dosing of neat solid in gelatin capsule. The series is classed as in vivo. To be noted: oral dosing of the crystalline solid. The protocol: A study was conducted to compare the pharmacokinetic profiles of Compound 1 and Cocrystal 2. Compound 1 and Cocrystal 2 were administered as neat solids to six male beagle dogs in a crossover study with a two-week washout period between treatments. Each dog was dosed with either Compound 1 or Cocrystal 2 in a gelatin capsule after an overnight fast. All research involving animal subjects adhered to the “Principles of Laboratory Animal Care” (NIH publication #85-23). Dose levels of 5 mg/kg and 50 mg/kg were each evaluated. Each dog received one size #2 capsule for the 5 mg/kg dose. Dosing at 50 mg/kg required use of two size #00 capsules for each dog. Blood samples were collected at intervals for 36 hours post-dose. Non-compartmental pharmacokinetic metrics were determined using WinNonlin v. 1.5 (Scientific Consulting, Inc., Mountain View, Calif.). The area under the plasma concentration-time curve (AUC) was estimated by application of the linear trapezoidal rule. Statistical analyses were conducted using Microsoft Excel 2000; statistical significance was considered when p<0.05.

Where only a bound is given, the exact number is not on record here.

On to `NC(=O)c1ccnc(-c2ccc(Oc3ccc(Cl)cc3F)cc2)n1` [Compound 1], for which the “solubility in aqueous systems” value in series [1] was under 0.1 µg/mL. The in-vitro dissolution result in series [2] was “low”. Further, the in-vivo plasma concentrations result in series [3] was “low”.
